In PubChem BioAssay AID1996:
Values after ≈ are worked out from the molar mass of the structure shown.

Settings: buffer; pH 7.4; 200.0 µM

SMILES	solubility kinetic [µg/mL]
O=C(NC(=O)c1ccccc1)Nc1ccc(-c2cnco2)cc1	< 0.2
NS(=O)(=O)c1ccc(CCNC(=O)c2ccc3c(=O)n4c(nc3c2)CCCCC4)cc1	8.2 (≈ 18.6 µM)
CCc1cccc(C)c1NC(=O)CSc1nc(C)c(C)o1	> 45.7
Cc1cc(C)c(NC(=O)CC(=O)c2ccccc2)c(Cl)c1	3.5 (≈ 11.6 µM)
O=C(Nc1ccon1)Nc1cccc(Cl)c1Cl	1.9 (≈ 6.98 µM)
O=C1CN(C(=O)COC(=O)c2ccccc2O)c2ccccc2N1	3.5 (≈ 10.7 µM)
Cc1cccc2nc3ccccc3cc12	6.8 (≈ 35.2 µM)
CCOc1ncccc1C(=O)OCC(=O)NCCCc1ccccc1	> 51.4
COc1ccc(OC)c(Nc2nc(-c3ccncc3)nc3ccccc23)c1	< 0.2
Cc1ccc(S(=O)(=O)N(C)C)cc1NC(=O)C(C)OC(=O)C1CCC1 (centres undefined)	> 55.3
Cc1ccc(C(=O)NCC(C)NC(=O)c2ccc(C)c([N+](=O)[O-])c2)cc1[N+](=O)[O-] (centres undefined)	1.8 (≈ 4.5 µM)
NC(=O)Cn1c(=O)n(Cc2ccccc2)c(=O)c2cccnc21	33.8 (≈ 109 µM)
Cc1ccccc1NC(=O)C(C)SCc1ccccc1 (centres undefined)	> 42.8
COc1ccccc1C1(CCNC(C)c2cccs2)CCOC(C(C)C)C1 (centres undefined)	54.4 (≈ 140 µM)
CCOC(Cn1ccc(=O)[nH]c1=O)OCC	> 34.2
Cn1c(=O)[nH]c2ncccc21	> 22.4
O=C(COC(=O)c1ccccc1Cl)NCc1ccco1	> 44.1
O=C(OCC(=O)N1CCN(C(=O)c2ccco2)CC1)c1ccc(Cl)nc1	> 56.7
N/C(=N/[N+](=O)[O-])N1CCN(C(=O)Oc2ccc([N+](=O)[O-])cc2)CC1	> 50.7
Cn1c(/C=C/c2ccccc2)nc2ccccc2c1=O	2.3 (≈ 8.77 µM)
O=c1cc(-c2ccco2)nc(SCc2cccc(Cl)c2)[nH]1	0.6 (≈ 1.88 µM)
COc1ccc(NC(=O)CC2(CC(=O)O)CCCC2)cc1	43.6 (≈ 150 µM)
C=CCOC(=O)C1=C(C)NC(=O)NC1c1ccc(N(C)C)cc1 (centres undefined)	5.8 (≈ 18.4 µM)
O=C(O)c1cccnc1SCC(=O)N1CCCc2ccccc21	47 (≈ 143 µM)

SMILES	solubility kinetic [µg/mL]
Cl.N=c1ccn(Cc2ccc(F)cc2)cc1	> 35.8
Cc1ccccc1NC(=S)N1CCC(NC(=O)c2ccco2)CC1	47.1 (≈ 137 µM)
N#Cc1c(N)nc2c(c1N)CC(C(F)(F)F)O2 (centres undefined)	> 36.6
Cc1ccc(C)c(S(=O)(=O)NC(C)C(=O)NCc2ccccn2)c1 (centres undefined)	> 52.1
Cc1cc(-c2csc3nc[nH]c(=S)c23)cc(C)c1C	3.1 (≈ 10.8 µM)
CCc1ccn2cc(-c3cc(-c4ccccc4)no3)nc2c1	1.5 (≈ 5.18 µM)
CC(CCc1ccccc1)NC(=O)CN1CCc2ccccc2C1 (centres undefined)	47.3 (≈ 147 µM)
C=CCN(Cc1ccc(OC)c(OC)c1)C(=O)N1CCOCC1	> 48.1
Cc1ccc(Nc2ncnc3sccc23)c(C)c1	> 38.3
Cc1ccc(OC(C)C(=O)Nc2ncc(Cl)cc2Cl)c([N+](=O)[O-])n1 (centres undefined)	8.9 (≈ 24 µM)
Cc1cnc(-n2c(=S)[nH]c3ccccc3c2=O)s1	> 41.3
Cc1ccc(-c2nc(C#N)c(NCC3CCCO3)o2)cc1 (centres undefined)	37 (≈ 131 µM)
O=Cc1ccc(-n2cc(C=O)c3ccccc32)cc1	2.4 (≈ 9.63 µM)
CC(C)CN1C(=O)N(c2ccc(Cl)cc2)C(C)(O)CC1(C)C (centres undefined)	4.1 (≈ 12.6 µM)
COc1ccc(Cn2c(=S)[nH]c3ccccc3c2=O)cc1	< 0.3
CCc1nc2ccccc2c(C(=O)Nc2cc(C)ccc2C)c1C	45.6 (≈ 143 µM)
CN(C)CCC(=O)C(Cc1ccccc1)c1ccccc1.Cl (centres undefined)	44.7
S=C(Nc1cccnc1)N1CCc2ccccc21	> 38.3
CCc1ccc(NC(=S)N2CCN(C)CC2)cc1	> 39.5
Cc1nc(-c2ccc(S(=O)(=O)N3CCOCC3)cc2)cs1	20.7 (≈ 63.8 µM)
O=C(OCC(=O)N1CCN(C(=O)c2ccco2)CC1)c1c(Cl)cccc1Cl	> 61.7
O=C1CCC(C(=O)N2CCOCC2)CN1Cc1ccc(Cl)cc1 (centres undefined)	> 50.5
CCOc1ccccc1NC(=O)C(=O)CC(=O)c1ccc(OC)cc1	6.1 (≈ 17.9 µM)
O=C(Nc1cccc(Cl)c1)Nc1ccon1	10.7 (≈ 45 µM)

SMILES	solubility kinetic [µg/mL]
O=C1/C(=C\c2cccc(O)c2)SC(=S)N1Cc1ccccc1	< 0.7
O=[N+]([O-])c1ccc(NC(=S)N2CCc3ccccc32)cc1	3.9 (≈ 13 µM)
O=[N+]([O-])c1ccccc1S(=O)(=O)N(CC1CO1)c1ccccc1 (centres undefined)	> 50.2
COc1cc(CN2CCCN(C)CC2)c([N+](=O)[O-])cc1OC	39 (≈ 126 µM)
Cc1ccc(NC(=O)c2ccc3c(c2)CCN3S(C)(=O)=O)cc1C	2 (≈ 5.81 µM)
CCOC(=O)N1CCN(S(=O)(=O)c2ccc3c4c(cccc24)C(=O)N3)CC1	3.6 (≈ 9.24 µM)
N#Cc1cccc(Cn2cc(C(F)(F)F)ccc2=O)c1	41.7 (≈ 150 µM)
CN1CC(C(=O)Nc2ccc(F)c(Cl)c2)CC1=O (centres undefined)	> 40.6
CCCCn1c2c(c(=N)c3ccccc31)CCC2.I	> 55.2
CCn1cc(C2CC(=O)NC2=O)c2ccccc21 (centres undefined)	> 36.3
CN(Cc1ccccc1C#N)S(=O)(=O)c1cccs1	34.8 (≈ 119 µM)
CC1(C)Oc2ccc(C(=O)NC3CCCCC3)cc2N(CC#N)C1=O	12.9 (≈ 37.8 µM)
Cc1cc(Cl)ccc1OCC(=O)Nc1cccnc1	35.3 (≈ 128 µM)
COc1cccc(NC(=O)NCc2c(-c3ccccc3)noc2C)c1	2.4 (≈ 7.11 µM)
CN(C)CC/C=C1/c2ccccc2CS(=O)(=O)c2ccccc21	47.6 (≈ 145 µM)
Cc1cc2occ(CC(=O)NC3(C)CCS(=O)(=O)C3)c2cc1C (centres undefined)	> 50.3
O=C(Cc1c(F)cccc1Cl)Nc1cc(S(=O)(=O)N2CCOCC2)ccc1N1CCCC1	2 (≈ 4.15 µM)
CCOC(=O)C(O)(c1ccc(N=c2ccccn2C)cc1)C(F)(F)F (centres undefined)	46.3 (≈ 131 µM)
Cl.NCCCCCc1nnc(SCC(N)=O)o1	> 42.1
O=C(NC(=S)NCc1cccnc1)c1cc(Br)ccc1Cl	0.9 (≈ 2.34 µM)
CCNC(=O)CC1C(=O)N(c2cccc(C)c2)C(=O)N1CCC(C)C (centres undefined)	> 51.8
CN1CCN(C(=O)c2cccn(Cc3cccc(Cl)c3)c2=O)CC1	> 51.9
NC(=O)C1CCCN(C(=S)NCc2ccc3c(c2)OCO3)C1 (centres undefined)	> 48.2
Cc1ccc(S(=O)(=O)NC(=O)NC(C)Cc2ccccc2)cc1 (centres undefined)	> 49.9

SMILES	solubility kinetic [µg/mL]
CCOC(=O)C(=CNc1cc(OC)ccc1-n1cccc1)C(=O)OCC	1 (≈ 2.79 µM)
Cc1cccc(Nc2cc(C)nc3ccccc23)c1.Cl	> 42.7
Cc1nc(S(=O)(=O)Nc2ccc3c(c2)OCCO3)cn1C	13.1 (≈ 42.3 µM)
NC(=O)C1CCCN(C(=O)CCC(=O)c2cccs2)C1 (centres undefined)	> 44.2
COC(=O)C1CCN(C(=O)c2ccc3nccnc3c2)CC1	> 44.9
COc1cc(SC)ccc1C(=O)Nc1ccccn1	9 (≈ 32.8 µM)
CC1c2ccccc2N(NC(=O)Cc2ccccc2)C1C (centres undefined)	> 42.1
CN1C2CCC1CC(NC(=O)c1cc(Cl)cc3[nH]cnc13)C2 (centres undefined)	40.7 (≈ 128 µM)
O=C(COC(=O)c1ccc([N+](=O)[O-])cc1)Nc1ccccc1C(=O)NC1CC1	8.5 (≈ 22.2 µM)
CC(=O)Nc1ccc(C(=O)NCCCSc2ccccc2)cc1	5.3 (≈ 16.1 µM)
COc1cc(C)ccc1OCCON1C(=O)CCC1=O	> 41.9
COc1ccc2oc(C(=O)OCC(=O)NC3CC3)c(C)c2c1	10.3 (≈ 34 µM)
COc1ccc(OC)c(NC(=O)c2nc3ccccc3s2)c1	< 0.3
Cc1cccc(C)c1NC(=O)C1C2C=CC(C2)C1C(=O)O (centres undefined)	39.7 (≈ 139 µM)
O=P(c1ccccc1)(c1ccccc1)C(O)c1ccccn1 (centres undefined)	> 46.4
CCOC(=O)c1c(C)[n+]([O-])c2ccc3c(non3O)c12	8.7 (≈ 31.4 µM)
Cc1cccnc1NC(=O)C1COc2ccccc2O1 (centres undefined)	40.1 (≈ 148 µM)
CC(=O)c1ccc(OCCCOc2cccc3cccnc23)cc1	12.2 (≈ 38 µM)
COc1ccccc1C(=O)NCCSCc1c(F)cccc1Cl	13.6 (≈ 38.4 µM)
Cc1ccc(N2CN(Cc3ccco3)CNC2=S)cc1	33.8 (≈ 118 µM)
Nc1c(C(=O)Nc2ccccc2)sc2ncc([N+](=O)[O-])cc12	< 0.2
COC(=O)c1cc(NC(=O)c2c(C)noc2C)ccc1N1CCOCC1	> 53.9
Cc1c(NC(=O)COC(=O)c2cccn2C)c(=O)n(-c2ccccc2)n1C	> 55.3
Cc1ccc(NC(=O)C2CCCCC2C(=O)O)cc1C (centres undefined)	40.4 (≈ 147 µM)

SMILES	solubility kinetic [µg/mL]
CCc1ccc(C(C)NC(=S)NCc2ccc(F)cc2)cc1 (centres undefined)	1 (≈ 3.16 µM)
O=C(Cn1cnc2ccccc21)Nc1cccc([N+](=O)[O-])c1	42.8 (≈ 144 µM)
O=S(=O)(Nc1ncccn1)c1ccc(Cl)cc1	40.1 (≈ 149 µM)
O=C(Cc1c(Cl)cccc1Cl)Nc1ccncc1	> 42.2
CCC(=O)Nc1cccc(C(=O)N(Cc2ccccc2)Cc2ccccc2)c1	22.2 (≈ 59.6 µM)
c1ccc(SSc2ccccn2)nc1	25.5 (≈ 116 µM)
CC(=O)OCC(=O)Nc1ccc(SC(F)F)cc1	> 41.3
O=[N+]([O-])c1ccc2nc(N3CCCC3)sc2c1	2.8 (≈ 11.2 µM)
Cc1ccnc(NC(=O)c2ccc3c(c2)OCO3)c1	> 38.4
COC(=O)c1ccc(/C=C2\Oc3ccccc3NC2=O)cc1	1 (≈ 3.39 µM)
Cc1ccc(N2CCN(c3ncccc3[N+](=O)[O-])CC2)c(C)c1	1.4 (≈ 4.48 µM)
O=C1OC2(O)C3C4C=CC(C4)C3C(=O)N2c2ccccc21 (centres undefined)	> 42.5
CCCSC1=C(C#N)C2(CCCCC2)C(C#N)=C(N)N1	> 43.3
Cc1ccc(-c2csc(NC(=O)c3ccccc3F)c2C(=O)O)cc1	> 53.3
Cc1ccc(N2CCN(C(=O)NC3CCCCC3)CC2)c(C)c1	1.6 (≈ 5.07 µM)
COC(=O)C1CCN(C(=O)c2cc(-c3ccco3)nc3ccccc23)CC1	> 54.7
CN1C(=O)C(=Cc2coc3ccccc3c2=O)C(=O)N(C)C1=O	> 46.8
CCC(C)NC(=O)c1ccc(-n2c(=S)[nH]c3ccccc3c2=O)cc1 (centres undefined)	3.7 (≈ 10.5 µM)
CN(C)C(=O)COc1ncnc2scc(-c3ccc(F)cc3)c12	45.8 (≈ 138 µM)
C=CCOn1c(=O)c(-c2ccc(Cl)cc2)[n+]([O-])c2ccccc21	0.8 (≈ 2.43 µM)
CCOC(=O)N1CCN(CC(=O)Nc2sccc2C#N)CC1	> 48.4
O=C(CC(Nc1ccccc1)c1ccccc1)C1CC1 (centres undefined)	< 0.6
Cc1ccc(-n2nc(C(=O)O)cc2-c2ccccc2Cl)cc1	> 46.9
